Columns and labels:
[1] = target: T1, dopamine (DA) reuptake in synaptosomes (Rattus norvegicus, UniProt P23977); experiment: Inhibition of DA reuptake in synaptosomes; assay type: biochemical; details: 3H-DA, read-out: DA-uptake IC50
T1 construct: in synaptosomes as described in WO 97/16451; from tissue
Protocol: (§1) A compound of the invention was tested for its ability to inhibit the reuptake of the monoamine neurotransmitters dopamine (DA) noradrenaline (NA) and serotonine (5-HT) in synaptosomes as described in WO 97/16451.
(§2) The test values are given as IC50 (the concentration (μM) of the test substance which inhibits the specific binding of ^3H-DA, ^3H-NA, or ^3H-5-HT by 50%).

[2] = target: T2, α7-subtype of nicotinic receptors (Rattus norvegicus, UniProt Q05941); experiment: biochemical; assay type: binding
T2 construct: Cerebral cortices from male Wistar rats (150-250 g) are homogenised; from tissue; host or cells: cerebral cortex of male Wistar rats, washed membrane pellet
T2 sequence (Q05941 23-502): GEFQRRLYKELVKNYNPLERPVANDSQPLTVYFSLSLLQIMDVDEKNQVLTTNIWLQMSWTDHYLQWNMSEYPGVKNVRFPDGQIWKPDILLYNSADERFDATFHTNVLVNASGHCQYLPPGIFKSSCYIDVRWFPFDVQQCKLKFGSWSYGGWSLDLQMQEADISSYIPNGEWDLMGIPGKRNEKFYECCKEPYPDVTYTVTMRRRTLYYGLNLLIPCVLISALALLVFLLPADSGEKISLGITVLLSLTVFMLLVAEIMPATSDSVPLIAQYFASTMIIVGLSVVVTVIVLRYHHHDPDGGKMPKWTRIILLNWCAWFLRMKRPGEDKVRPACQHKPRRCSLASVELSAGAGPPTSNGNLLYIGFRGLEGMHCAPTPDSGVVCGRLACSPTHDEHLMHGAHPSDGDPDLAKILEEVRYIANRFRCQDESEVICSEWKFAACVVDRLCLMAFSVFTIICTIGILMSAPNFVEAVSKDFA

[3] = target: T3, serotonine (5-HT) reuptake in synaptosomes (Rattus norvegicus, UniProt P31652); experiment: Inhibition of 5-HT reuptake in synaptosomes; assay type: biochemical; details: 3H-5-HT, read-out: 5-HT-uptake IC50
T3 construct: serotonine (5-HT) in synaptosomes as described in WO 97/16451; from tissue
T3 sequence (P31652 whole entry): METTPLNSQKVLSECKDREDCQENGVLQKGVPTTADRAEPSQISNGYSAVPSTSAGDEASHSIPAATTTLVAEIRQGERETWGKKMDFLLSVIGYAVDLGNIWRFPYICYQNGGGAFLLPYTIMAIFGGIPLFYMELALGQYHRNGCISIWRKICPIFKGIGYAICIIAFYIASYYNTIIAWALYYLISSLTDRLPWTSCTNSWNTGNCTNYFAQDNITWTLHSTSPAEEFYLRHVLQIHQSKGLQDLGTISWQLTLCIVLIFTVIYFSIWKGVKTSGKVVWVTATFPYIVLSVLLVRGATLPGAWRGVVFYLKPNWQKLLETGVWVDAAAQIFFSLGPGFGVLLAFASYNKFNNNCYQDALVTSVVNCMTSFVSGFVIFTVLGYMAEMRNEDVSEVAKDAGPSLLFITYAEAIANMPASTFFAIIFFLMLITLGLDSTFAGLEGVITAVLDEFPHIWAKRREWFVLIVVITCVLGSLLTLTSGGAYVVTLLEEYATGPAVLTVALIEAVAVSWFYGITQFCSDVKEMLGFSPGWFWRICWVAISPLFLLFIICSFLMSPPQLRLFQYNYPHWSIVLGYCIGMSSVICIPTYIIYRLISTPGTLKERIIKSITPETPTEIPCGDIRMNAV
Protocol: as §1, §2

T1 sequence (P23977 whole entry): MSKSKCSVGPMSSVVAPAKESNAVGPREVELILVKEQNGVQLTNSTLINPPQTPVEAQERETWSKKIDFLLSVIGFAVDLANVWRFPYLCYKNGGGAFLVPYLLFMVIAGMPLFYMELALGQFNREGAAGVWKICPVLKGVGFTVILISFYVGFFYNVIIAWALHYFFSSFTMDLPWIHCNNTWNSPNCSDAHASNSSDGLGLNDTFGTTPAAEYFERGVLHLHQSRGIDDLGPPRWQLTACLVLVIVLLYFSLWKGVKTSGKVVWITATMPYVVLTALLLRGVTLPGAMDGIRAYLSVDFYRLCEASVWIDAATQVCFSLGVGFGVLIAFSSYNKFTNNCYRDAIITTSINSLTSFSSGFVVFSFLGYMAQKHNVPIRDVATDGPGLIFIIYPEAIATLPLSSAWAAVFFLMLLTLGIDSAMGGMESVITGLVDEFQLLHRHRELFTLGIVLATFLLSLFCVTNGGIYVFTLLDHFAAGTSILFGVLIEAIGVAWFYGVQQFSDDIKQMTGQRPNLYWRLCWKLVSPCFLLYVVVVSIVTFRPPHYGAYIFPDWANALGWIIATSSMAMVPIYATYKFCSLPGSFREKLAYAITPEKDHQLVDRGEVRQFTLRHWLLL

With `O=C(Oc1ccc(N=Nc2ccccc2)cc1)N1CCN2CCC1CC2` [1,4-Diaza-bicyclo[3.2.2]nonane-4-carboxylic acid 4-phenylazo-phenyl ester] the IC50 [1] was 32 nM, the IC50 [2] was 1600 nM and the IC50 [3] was 13000 nM.
